logP data for 69 molecules are collected here from patent US20100022559A1, “BISOXIMES AS FUNGICIDES” (BAYER CROPSCIENCE AG, priority 2006, published 2010).

Molecules are shown by their SMILES.

The nature of the first data set: logP determination by HPLC on a reversed-phase column (C 18), EEC Directive 79/831 Annex V.A8. It counts as physicochemical. Conditions: method marker [a] (footnote not shown); isomer A / isomer B / isomer mixture as noted in the cell. As to the method: The stated logP values were determined in accordance with EEC Directive 79/831 Annex V.A8 by HPLC (high performance liquid chromatography) on a reversed-phase column (C 18). Temperature: 43° C.
For the molecule `CC(=NOCCCON=C(C)c1cc(C)cc(C)n1)c1cc(C)cc(C)n1` [Compound 224], the logP is 1.65^[a].

For `CC(=NOCC(C)CON=C(C)c1cc(C)cc(C)n1)c1cc(C)cc(C)n1` (centres unmarked) [Compound 225], the logP is 2.11^[a].

For the molecule `CC(=NOCC(C)CON=C(C)c1cccc(C(C)C)n1)c1cccc(C(C)C)n1` (centres unmarked) [Compound 229], the logP is 7.36^[a].

Regarding `CCC(=NOCC(C)CON=C(CC)c1ccc(C)c(C)n1)c1ccc(C)c(C)n1` (centres unmarked) [Compound 235], the logP is 4.88^[a].

For `C=C(CON=C(CC)c1cccc(C)n1)CON=C(CC)c1cccc(C)n1` [Compound 239], the logP was 5.16^[a].

The same data set, now with this note: method marker [b]; isomer A / isomer B / isomer mixture as noted in the cell.
Regarding `C=C(CON=C(C)c1cccc(C)n1)CON=C(C)c1ccc(C)c(C)n1` [Compound 204], the logP was 3.10^[b].

On to `C=C(CON=C(C)c1cccc(C)n1)CON=C(C)c1cccc(Br)n1` [Compound 206], for which the logP is 4.98^[b].

Regarding `CC(=NOCC(F)CON=C(C)c1cccc(C)n1)c1cccc(C)n1` (centres unmarked) [Compound 212], the logP is 2.94^[b].

For the molecule `CC(=NOCC(C)CON=C(C)c1nc2ccccc2s1)c1nc2ccccc2s1` (centres unmarked) [Compound 213], the logP is 6.71^[b].

`C/C(=N\OCCOCOCCO/N=C(\C)c1cccc(C)n1)c1cccc(C)n1` [Compound 216]: the logP was 2.02^[b].

With `CC(=NOCCCCCCCON=C(C)c1cccc(C)n1)c1cccc(C)n1` [Compound 217], the logP is 5.37^[b].

Regarding `C=C(CON=C(C)c1cc(C)cc(C)n1)CON=C(C)c1cc(C)cc(C)n1` [Compound 219], the logP was 1.98^[b].

Consider `C=C(CON=C(C)c1cccc(C)n1)CON=C(N)c1nc(C2CC2)cc(C2CC2)n1` [Compound 243], for which the logP is 3.09^[b].

For the molecule `C=C(CON=C(C)c1cccc(C)n1)CON=C(N)c1nc(C)c(C(C)CC)c(C2CC2)n1` (centres unmarked) [Compound 244], the logP was 3.99^[b].

In the case of `CC(=NOC(C)CC(C)ON=C(C)c1cccc(C)n1)c1cccc(C)n1` (centres unmarked) [Compound 248], the logP is 4.10^[b].

Regarding `COc1ccc(C)nc1C(C)=NOCC(C)CON=C(C)c1nc(C)ccc1OC` (centres unmarked) [Compound 251], the logP was 2.04^[b].

Consider `CCC(=NOCC(C)CON=C(CC)c1nc(C)c(C)c(C)n1)c1nc(C)c(C)c(C)n1` (centres unmarked) [Compound 254], for which the logP is 4.38^[b].

The same data set, now with this note: value marked [a].
With `CC(=NOCC(C)CON=C(C)c1nc(C)c(C)cc1C)c1nc(C)c(C)cc1C` (centres unmarked) [Compound 255], the logP was 2.19^[a].

Take `CCCC(=NOCC(C)CON=C(CCC)c1ccc(C)c(C)n1)c1ccc(C)c(C)n1` (centres unmarked) [Compound 262]: the logP was 6.26^[a].

As for `CC(=NOCC(C)(C)CON=C(C)c1cc(C)cc(C)n1)c1cc(C)cc(C)n1` [Compound 276], the logP is 2.54^[a].

As for `CCC(=NOCC(C)(C)CON=C(CC)c1cccc(C)n1)c1cccc(C)n1` [Compound 277], the logP is 6.11^[a].

As for `CC(=NOCC(C)(C)CON=C(C)c1ccc(C)c(C)n1)c1ccc(C)c(C)n1` [Compound 278], the logP was 3.81^[a].

Consider `CCCC(=NOCC(C)(C)CON=C(CCC)c1cccc(C)n1)c1cccc(C)n1` [Compound 279], for which the logP is 7.25^[a].

As to `CCC(=NOCC(C)(C)CON=C(CC)c1ccc(C)c(C)n1)c1ccc(C)c(C)n1` [Compound 280], the logP was 5.58^[a].

On to `CC(=NOC[Si](C)(C)CON=C(C)c1cccc(C)n1)c1cccc(C)n1` [Compound 292], for which the logP was 4.50^[a].

`CC(=NOCC(C)CON=C(C)c1ccc2c(n1)CCC2)c1ccc2c(n1)CCC2` (centres unmarked) [Compound 300]: the logP is 4.14^[a].

Regarding `CC(=NOCC(C)(C)CON=C(C)c1ccc2c(n1)CCC2)c1ccc2c(n1)CCC2` [Compound 301], the logP is 4.78^[a].

Turning to `CC(=NOCCCON=C(C)c1ccc2c(n1)CCC2)c1ccc2c(n1)CCC2` [Compound 302], the logP is 3.28^[a].

Turning to `CC(=NOCC(C)(C)CON=C(C)c1ccc2c(n1)CCCC2)c1ccc2c(n1)CCCC2` [Compound 303], the logP was 5.49^[a].

For the molecule `CC(=NOCC(C)CON=C(C)c1ccc2c(n1)CCCC2)c1ccc2c(n1)CCCC2` (centres unmarked) [Compound 304], the logP is 4.69^[a].

Take `CC(=NOCC(C)(C)CON=C(C)c1cccc(Cc2ccccc2)n1)c1cccc(C)n1` [Compound 364]: the logP is 6.47^[a].

Still in this data set, the particulars now being: value marked [b].
Take `CC(=NOCC(CON=C(C)c1cccc(C)n1)c1ccccc1)c1cccc(C)n1` (centres unmarked) [Compound 264]: the logP is 4.63^[b].

Turning to `C=C(CON=C(CC)c1cccc(CC)n1)CON=C(CC)c1cccc(CC)n1` [Compound 265], the logP is 7.08^[b].

`CC(=NOCC(C)CON=C(C)c1nc(C)c(C)c(C)n1)c1nc(C)c(C)c(C)n1` (centres unmarked) [Compound 266]: the logP was 3.41^[b].

On to `CC(=NOCC(CON=C(C)c1cccc(C)n1)C(C)(C)C)c1cccc(C)n1` (centres unmarked) [Compound 269], for which the logP is 5.51^[b].

As for `CCCC(CON=C(C)c1cccc(C)n1)CON=C(C)c1cccc(C)n1` (centres unmarked) [Compound 270], the logP is 5.14^[b].

For `COc1cc(OC)nc(C(C)=NOCC(C)CON=C(C)c2nc(OC)cc(OC)n2)n1` (centres unmarked) [Compound 272], the logP is 4.49^[b].

Consider `C=C(CON=C(C)c1nc(C)ccc1OC)CON=C(C)c1nc(C)ccc1OC` [Compound 283], for which the logP was 2.05^[b].

Take `CC(=NOCC1(CON=C(C)c2cccc(C)n2)CCC1)c1cccc(C)n1` [Compound 289]: the logP was 4.77^[b].

Turning to `COCc1cccc(C(C)=NOCC(C)CON=C(C)c2cccc(COC)n2)n1` (centres unmarked) [Compound 290], the logP was 4.92^[b].

As to `COC(CON=C(C)c1cccc(C)n1)CON=C(C)c1cccc(C)n1` (centres unmarked) [Compound 294], the logP is 2.22^[b].

`CC(=NOCCC(C)ON=C(C)c1cccc(C)n1)c1cccc(C)n1` (centres unmarked) [Compound 295]: the logP is 3.34^[b].

`CCc1nc(C(C)=NOCC(C)CON=C(C)c2ccc(C)c(CC)n2)ccc1C` (centres unmarked) [Compound 310]: the logP is 6.48^[b].

Consider `CC(=NOCC1(CON=C(C)c2ccc(C)c(C)n2)CC1)c1ccc(C)c(C)n1` [Compound 315], for which the logP is 2.84^[b].

Regarding `CCCC(CON=C(C)c1ccc(C)c(C)n1)CON=C(C)c1ccc(C)c(C)n1` (centres unmarked) [Compound 316], the logP is 4.48^[b].

Turning to `CC(=NOCC(CON=C(C)c1ccc(C)c(C)n1)C(C)(C)C)c1ccc(C)c(C)n1` (centres unmarked) [Compound 317], the logP was 4.91^[b].

As to `CC(=NOCC(CON=C(C)c1ccc(C)c(C)n1)c1ccccc1)c1ccc(C)c(C)n1` (centres unmarked) [Compound 318], the logP is 4.02^[b].

On to `CC(=NOCC1(CON=C(C)c2ccc(C)c(C)n2)CCC1)c1ccc(C)c(C)n1` [Compound 319], for which the logP is on record as 4.07^b].

With `CC(=NOCC1(CON=C(C)c2ccc(C)c(C)n2)CCCCC1)c1ccc(C)c(C)n1` [Compound 320], the logP is 5.34^[b].

Take `COC(CON=C(C)c1ccc(C)c(C)n1)CON=C(C)c1ccc(C)c(C)n1` (centres unmarked) [Compound 321]: the logP was 1.95^[b].

Regarding `CC(=NOC(C)CC(C)ON=C(C)c1ccc(C)c(C)n1)c1ccc(C)c(C)n1` (centres unmarked) [Compound 322], the logP is 3.4^[b].

For `CCC(=NOCCCCCCON=C(C)c1cccc(C)n1)c1cccc(C)n1` [Compound 346], the logP is 5.59^[b].

As to `C=C(CON=C(C)c1cccc(C)n1)CON=C(C)c1cccc(Cc2ccccc2)n1` [Compound 350], the logP was 5.71^[b].

In the case of `C=C(CON=C(C)c1cccc(C)n1)CON=C(c1cccc(C)n1)C(C)C` [Compound 359], the logP is 4.72^[b] (isomer B).

Take `CC(=NOCC(C)(C)CON=C(C)c1cccc(CC(C)C)n1)c1cccc(C)n1` [Compound 367]: the logP is 7.07^[b].

For the molecule `CCc1cccc(C(C)=NOCC(C)(C)CON=C(C)c2cccc(C)n2)n1` [Compound 370], the logP is 5.78^[b].

Take `CC(=NOCC(C)(C)CON=C(c1ccccc1)c1cccc(C)n1)c1cccc(C)n1` [Compound 371]: the logP was 4.51^[b].

Consider `CCC(=NOCC(C)(C)CON=C(C)c1cccc(C)n1)c1cccc(C)n1` [Compound 372], for which the logP was 5.33^[b].

As to `CC(=NOCCCCON=C(C)c1cccc(C)n1)c1cc(C)ccn1` [Compound 373], the logP was 2.66^[b].

Turning to `CC(=NOCCCCON=C(C)c1cccc(C)n1)c1cccc(C(F)(F)F)c1` [Compound 375], the logP is 5.54^[b].

Regarding `CC(=NOCCCCON=C(C)c1cccc(C)n1)c1ccccn1` [Compound 376], the logP is 3.11^[b].

For `CC(=NOCC(C)(C)CON=C(C)c1cccc(C)n1)c1ccc(C)nc1` [Compound 416], the logP is 2.41^[b].

Turning to `CC(=NOCC(C)CON=C(C)c1cccc(Cc2ccccc2)n1)c1cccc(C)n1` (centres unmarked) [Compound 420], the logP was 6.09^[b].

In the case of `CC(=NOCC(C)CON=C(C)c1cccc(CC(C)C)n1)c1cccc(C)n1` (centres unmarked) [Compound 423], the logP was 6.51^[b].

Consider `CCCC(=NOCC(C)CON=C(C)c1cccc(C)n1)c1cccc(C)n1` (centres unmarked) [Compound 427], for which the logP is 5.31^[b].

For `CCC(=NOCC(C)CON=C(C)c1cccc(C)n1)c1cccc(C)n1` (centres unmarked) [Compound 428], the logP was 4.51^[b].

For `CC(=NOCC(C)CON=C(c1cccc(C)n1)C1CC1)c1cccc(C)n1` (centres unmarked) [Compound 429], the logP was 3.61^[b].

Turning to `CC(=NOCCCCCCON=C(C)c1cc(C)cc(C)n1)c1cccc(C)n1` [Compound 460], the logP was 3.51^[b].

For `C=C(CON=C(C)c1cccc(C)n1)CON=C(C)c1cc(C)cc(C)n1` [Compound 474], the logP is 2.55^[b].

The same data set, now with this note: value marked [c].
Take `CC(=NOCC1(CON=C(C)c2ccc(C)c(C)n2)CC1)c1ccc(C)c(C)n1` [Compound 315]: the logP is 6.08^[c].

On to `CCCC(CON=C(C)c1ccc(C)c(C)n1)CON=C(C)c1ccc(C)c(C)n1` (centres unmarked) [Compound 316], for which the logP is 7.23^[c].

Regarding `CC(=NOCC(CON=C(C)c1ccc(C)c(C)n1)C(C)(C)C)c1ccc(C)c(C)n1` (centres unmarked) [Compound 317], the logP was 7.36^[c].

For the molecule `CC(=NOCC(CON=C(C)c1ccc(C)c(C)n1)c1ccccc1)c1ccc(C)c(C)n1` (centres unmarked) [Compound 318], the logP is 6.45^[c].

Take `CC(=NOCC1(CON=C(C)c2ccc(C)c(C)n2)CCC1)c1ccc(C)c(C)n1` [Compound 319]: the logP was 7.05^[c].

As to `CC(=NOCC1(CON=C(C)c2ccc(C)c(C)n2)CCCCC1)c1ccc(C)c(C)n1` [Compound 320], the logP is 7.36^[c].

For `COC(CON=C(C)c1ccc(C)c(C)n1)CON=C(C)c1ccc(C)c(C)n1` (centres unmarked) [Compound 321], the logP is 5.06^[c].

Regarding `CC(=NOC(C)CC(C)ON=C(C)c1ccc(C)c(C)n1)c1ccc(C)c(C)n1` (centres unmarked) [Compound 322], the logP is 6.79^[c].
